Laboratory results reported in the supplement of paper PMC13380429.
± gives the standard deviation of the averaged measurements.

Columns and labels:
Conditions in all cases: 72 h
Caco-2 [1] = test: cell viability relative to DMSO; higher = less toxic
Calu-3 [2] = test: as above
Vero E6 [3] = test: as above
Caco-2 [4] = test: relative viability EC50 (midpoint between 100% and the lowest measured viability); higher = less toxic
Calu-3 [5] = test: as above
Vero E6 [6] = test: as above
Caco-2 [7] = test: drug sensitivity score (DSS) for viability; higher = more toxic; extreme values may be limits of the assay
Calu-3 [8] = test: as above
Vero E6 [9] = test: as above
HepG2 [10] = test: as above
U2OS [11] = test: as above
HepG2 [12] = test: cell viability relative to DMSO; higher = less toxic
U2OS [13] = test: as above
U2OS [14] = test: relative viability EC50 (midpoint between 100% and the lowest measured viability); higher = less toxic

## CCN1CCN(C(=O)N[C@@H](C(=O)N[C@@H]2C(=O)N3C(C(=O)O)=C(CSc4nnnn4C)CS[C@H]23)c2ccc(O)cc2)C(=O)C1=O [cefoperazone]
Caco-2 [1]; 1 nM
  cell viability: 98.5%
Caco-2 [1]; 10 nM
  cell viability: 107%
Caco-2 [1]; 100 nM
  cell viability: 102%
Caco-2 [1]; 1000 nM
  cell viability: 100%
Caco-2 [1]; 10000 nM
  cell viability: 99.6%
Calu-3 [2]; 1 nM
  cell viability: 89.8%
Calu-3 [2]; 10 nM
  cell viability: 101%
Calu-3 [2]; 100 nM
  cell viability: 97%
Calu-3 [2]; 1000 nM
  cell viability: 97.1%
Calu-3 [2]; 10000 nM
  cell viability: 102%
Vero E6 [3]; 1 nM
  cell viability: 96.7%
Vero E6 [3]; 10 nM
  cell viability: 104%
Vero E6 [3]; 100 nM
  cell viability: 99.5%
Vero E6 [3]; 1000 nM
  cell viability: 106%
Vero E6 [3]; 10000 nM
  cell viability: 98.4%
Caco-2 [4]
  relative viability EC50: > 10 µM
Calu-3 [5]
  relative viability EC50: > 10 µM
Vero E6 [6]
  relative viability EC50: > 10 µM
Caco-2 [7]
  drug sensitivity score: 0
Calu-3 [8]
  drug sensitivity score: 0
Vero E6 [9]
  drug sensitivity score: 0

## O=C(/C=C/c1ccc(O)c(O)c1)O[C@@H]1C[C@](O)(C(=O)O)C[C@@H](O)[C@H]1O [chlorogenic-acid]
Calu-3 [8]
  drug sensitivity score: 0
HepG2 [10]
  drug sensitivity score: 0
U2OS [11]
  drug sensitivity score: 0
Vero E6 [9]
  drug sensitivity score: 0

## C[C@H]1[C@H](C)CC[C@]2(C(=O)O)CC[C@]3(C)C(=CC[C@@H]4[C@@]5(C)C[C@@H](O)[C@H](O)C(C)(C)[C@@H]5CC[C@]43C)[C@H]12 [corosolic-acid]
Caco-2 [1]; 1 nM
  cell viability: 107%
Caco-2 [1]; 10 nM
  cell viability: 110%
Caco-2 [1]; 100 nM
  cell viability: 102%
Caco-2 [1]; 1000 nM
  cell viability: 108%
Caco-2 [1]; 10000 nM
  cell viability: 99.6%
Calu-3 [2]; 1 nM
  cell viability: 96.8%
Calu-3 [2]; 10 nM
  cell viability: 106%
Calu-3 [2]; 100 nM
  cell viability: 103%
Calu-3 [2]; 1000 nM
  cell viability: 95.3%
Calu-3 [2]; 10000 nM
  cell viability: 99.8%
Vero E6 [3]; 1 nM
  cell viability: 101%
Vero E6 [3]; 10 nM
  cell viability: 104%
Vero E6 [3]; 100 nM
  cell viability: 99.7%
Vero E6 [3]; 1000 nM
  cell viability: 104%
Vero E6 [3]; 10000 nM
  cell viability: 103%
Caco-2 [4]
  relative viability EC50: > 10 µM
Calu-3 [5]
  relative viability EC50: > 10 µM
Vero E6 [6]
  relative viability EC50: > 10 µM
Caco-2 [7]
  drug sensitivity score: 0
Calu-3 [8]
  drug sensitivity score: 0
Vero E6 [9]
  drug sensitivity score: 0

## C=C1C[C@@]2(O)O[C@@]3(C[C@H]2C(C)C)[C@@H](C)CC[C@@H]13 [curcumol]
Caco-2 [1]; 1 nM
  cell viability: 108%
Caco-2 [1]; 10 nM
  cell viability: 95.3%
Caco-2 [1]; 100 nM
  cell viability: 93.6%
Caco-2 [1]; 1000 nM
  cell viability: 97.3%
Caco-2 [1]; 10000 nM
  cell viability: 103%
Calu-3 [2]; 1 nM
  cell viability: 96.4%
Calu-3 [2]; 10 nM
  cell viability: 107%
Calu-3 [2]; 100 nM
  cell viability: 111%
Calu-3 [2]; 1000 nM
  cell viability: 101%
Calu-3 [2]; 10000 nM
  cell viability: 106%
Vero E6 [3]; 1 nM
  cell viability: 100%
Vero E6 [3]; 10 nM
  cell viability: 101%
Vero E6 [3]; 100 nM
  cell viability: 97.1%
Vero E6 [3]; 1000 nM
  cell viability: 91.9%
Vero E6 [3]; 10000 nM
  cell viability: 102%
Caco-2 [4]
  relative viability EC50: > 10 µM
Calu-3 [5]
  relative viability EC50: > 10 µM
Vero E6 [6]
  relative viability EC50: > 10 µM
Caco-2 [7]
  drug sensitivity score: 0
Calu-3 [8]
  drug sensitivity score: 0
Vero E6 [9]
  drug sensitivity score: 0

## Oc1ccc(OC2CCCCO2)cc1 (configuration not stated) [deoxyarbutin]
Caco-2 [1]; 1 nM
  cell viability: 89.2%
Caco-2 [1]; 10 nM
  cell viability: 99.1%
Caco-2 [1]; 100 nM
  cell viability: 99.1%
Caco-2 [1]; 1000 nM
  cell viability: 97.3%
Caco-2 [1]; 10000 nM
  cell viability: 104%
Calu-3 [2]; 1 nM
  cell viability: 98.1%
Calu-3 [2]; 10 nM
  cell viability: 98.2%
Calu-3 [2]; 100 nM
  cell viability: 97.4%
Calu-3 [2]; 1000 nM
  cell viability: 110%
Calu-3 [2]; 10000 nM
  cell viability: 92.9%
Caco-2 [4]
  relative viability EC50: > 10 µM
Calu-3 [5]
  relative viability EC50: > 10 µM
Caco-2 [7]
  drug sensitivity score: 0
Calu-3 [8]
  drug sensitivity score: 0

## CCOc1ccc(Cc2nccc3cc(OCC)c(OCC)cc23)cc1OCC [ethaverine]
Caco-2 [1]; 1 nM
  cell viability: 89.5%
Caco-2 [1]; 10 nM
  cell viability: 87.4%
Caco-2 [1]; 100 nM
  cell viability: 90.3%
Caco-2 [1]; 1000 nM
  cell viability: 82.9%
Caco-2 [1]; 10000 nM
  cell viability: 77.3%
Calu-3 [2]; 1 nM
  cell viability: 98.8%
Calu-3 [2]; 10 nM
  cell viability: 100%
Calu-3 [2]; 100 nM
  cell viability: 101%
Calu-3 [2]; 1000 nM
  cell viability: 105%
Calu-3 [2]; 10000 nM
  cell viability: 69.3%
HepG2 [12]; 1 nM
  cell viability: 86.2%
HepG2 [12]; 10 nM
  cell viability: 91.2%
HepG2 [12]; 100 nM
  cell viability: 105%
HepG2 [12]; 1000 nM
  cell viability: 76.5%
HepG2 [12]; 10000 nM
  cell viability: 57.3%
U2OS [13]; 1 nM
  cell viability: 93.3%
U2OS [13]; 10 nM
  cell viability: 106%
U2OS [13]; 100 nM
  cell viability: 95.4%
U2OS [13]; 1000 nM
  cell viability: 96.6%
U2OS [13]; 10000 nM
  cell viability: 86.1%
Vero E6 [3]; 1 nM
  cell viability: 116%
Vero E6 [3]; 10 nM
  cell viability: 90.6%
Vero E6 [3]; 100 nM
  cell viability: 103%
Vero E6 [3]; 1000 nM
  cell viability: 95.2%
Vero E6 [3]; 10000 nM
  cell viability: 90.9%
Caco-2 [4]
  relative viability EC50: > 10 µM
U2OS [14]
  relative viability EC50: > 10 µM
Vero E6 [6]
  relative viability EC50: > 10 µM
Caco-2 [7]
  drug sensitivity score: 3.6
Calu-3 [8]
  drug sensitivity score: 1.1
HepG2 [10]
  drug sensitivity score: 5.1
U2OS [11]
  drug sensitivity score: 0.3
Vero E6 [9]
  drug sensitivity score: 0

## COc1cc(/C=C/C(=O)O)ccc1O [ferulic-acid]
Caco-2 [1]; 1 nM
  cell viability: 99%
Caco-2 [1]; 10 nM
  cell viability: 97.8%
Caco-2 [1]; 100 nM
  cell viability: 96.4%
Caco-2 [1]; 1000 nM
  cell viability: 92.2%
Caco-2 [1]; 10000 nM
  cell viability: 103%
Calu-3 [2]; 1 nM
  cell viability: 93.8%
Calu-3 [2]; 10 nM
  cell viability: 98.6%
Calu-3 [2]; 100 nM
  cell viability: 103%
Calu-3 [2]; 1000 nM
  cell viability: 95.6%
Calu-3 [2]; 10000 nM
  cell viability: 94.2%
U2OS [13]; 1 nM
  cell viability: 97.8%
U2OS [13]; 10 nM
  cell viability: 102%
U2OS [13]; 100 nM
  cell viability: 99.9%
U2OS [13]; 1000 nM
  cell viability: 99.3%
U2OS [13]; 10000 nM
  cell viability: 101%
Vero E6 [3]; 1 nM
  cell viability: 94%
Vero E6 [3]; 10 nM
  cell viability: 107%
Vero E6 [3]; 100 nM
  cell viability: 94.5%
Vero E6 [3]; 1000 nM
  cell viability: 96.2%
Vero E6 [3]; 10000 nM
  cell viability: 107%
Caco-2 [4]
  relative viability EC50: > 10 µM
Calu-3 [5]
  relative viability EC50: > 10 µM
U2OS [14]
  relative viability EC50: > 10 µM
Vero E6 [6]
  relative viability EC50: > 10 µM
Caco-2 [7]
  drug sensitivity score: 0
Calu-3 [8]
  drug sensitivity score: 0
U2OS [11]
  drug sensitivity score: 0
Vero E6 [9]
  drug sensitivity score: 0

## C/C=C(/C)C(=O)O[C@H]1C(C)=C[C@]23C(=O)[C@@H](C=C(CO)[C@@H](O)[C@]12O)[C@H]1[C@@H](C[C@H]3C)C1(C)C [ingenol-mebutate]
Caco-2 [1]; 1 nM
  cell viability: 109%
Caco-2 [1]; 10 nM
  cell viability: 110%
Caco-2 [1]; 100 nM
  cell viability: 89.8%
Caco-2 [1]; 1000 nM
  cell viability: 81.8%
Caco-2 [1]; 10000 nM
  cell viability: 84.6%
Calu-3 [2]; 1 nM
  cell viability: 117%
Calu-3 [2]; 10 nM
  cell viability: 110%
Calu-3 [2]; 100 nM
  cell viability: 96.6%
Calu-3 [2]; 1000 nM
  cell viability: 102%
Calu-3 [2]; 10000 nM
  cell viability: 105%
HepG2 [12]; 1 nM
  cell viability: 102%
HepG2 [12]; 10 nM
  cell viability: 86.4%
HepG2 [12]; 100 nM
  cell viability: 66.4%
HepG2 [12]; 1000 nM
  cell viability: 70.7%
HepG2 [12]; 10000 nM
  cell viability: 77.7%
U2OS [13]; 1 nM
  cell viability: 101%
U2OS [13]; 10 nM
  cell viability: 88.5%
U2OS [13]; 100 nM
  cell viability: 75.2%
U2OS [13]; 1000 nM
  cell viability: 89.1%
U2OS [13]; 10000 nM
  cell viability: 93.4%
Vero E6 [3]; 1 nM
  cell viability: 99.2%
Vero E6 [3]; 10 nM
  cell viability: 83.9%
Vero E6 [3]; 100 nM
  cell viability: 54.7%
Vero E6 [3]; 1000 nM
  cell viability: 53%
Vero E6 [3]; 10000 nM
  cell viability: 51.7%
Caco-2 [4]
  relative viability EC50: > 10 µM
Calu-3 [5]
  relative viability EC50: > 10 µM
U2OS [14]
  relative viability EC50: > 10 µM
Caco-2 [7]
  drug sensitivity score: 3.2
Calu-3 [8]
  drug sensitivity score: 0
HepG2 [10]
  drug sensitivity score: 12
U2OS [11]
  drug sensitivity score: 0.8
Vero E6 [9]
  drug sensitivity score: 16.5

## O=C(O)c1nn(Cc2ccc(Cl)cc2Cl)c2ccccc12 [lonidamine]
Caco-2 [1]; 1 nM
  cell viability: 95.3%
Caco-2 [1]; 10 nM
  cell viability: 107%
Caco-2 [1]; 100 nM
  cell viability: 94.1%
Caco-2 [1]; 1000 nM
  cell viability: 105%
Caco-2 [1]; 10000 nM
  cell viability: 96.4%
Calu-3 [2]; 1 nM
  cell viability: 98.5%
Calu-3 [2]; 10 nM
  cell viability: 96.2%
Calu-3 [2]; 100 nM
  cell viability: 89.8%
Calu-3 [2]; 1000 nM
  cell viability: 101%
Calu-3 [2]; 10000 nM
  cell viability: 116%
U2OS [13]; 1 nM
  cell viability: 100%
U2OS [13]; 10 nM
  cell viability: 110%
U2OS [13]; 100 nM
  cell viability: 98%
U2OS [13]; 1000 nM
  cell viability: 111%
U2OS [13]; 10000 nM
  cell viability: 98%
Vero E6 [3]; 1 nM
  cell viability: 98.8%
Vero E6 [3]; 10 nM
  cell viability: 102%
Vero E6 [3]; 100 nM
  cell viability: 102%
Vero E6 [3]; 1000 nM
  cell viability: 95.8%
Vero E6 [3]; 10000 nM
  cell viability: 95.8%
Caco-2 [4]
  relative viability EC50: > 10 µM
Calu-3 [5]
  relative viability EC50: > 10 µM
U2OS [14]
  relative viability EC50: > 10 µM
Vero E6 [6]
  relative viability EC50: > 10 µM
Caco-2 [7]
  drug sensitivity score: 0
Calu-3 [8]
  drug sensitivity score: 0
U2OS [11]
  drug sensitivity score: 0
Vero E6 [9]
  drug sensitivity score: 0

## CC1COc2c(N3CCN(C)CC3)c(F)cc3c(=O)c(C(=O)O)cn1c23 (configuration not stated) [ofloxacin]
Calu-3 [8]
  drug sensitivity score: 0
HepG2 [10]
  drug sensitivity score: 0.85 ± 1.2
U2OS [11]
  drug sensitivity score: 0
Vero E6 [9]
  drug sensitivity score: 0
